This is an account of results in ChEMBL document CHEMBL3997767, “Magnetic Microbead Affinity Selection Screening (MagMASS) of Botanical Extracts for Inhibitors of 15-Lipoxygenase” (J Nat Prod, 2016).

Calls of active or inactive are those of the source. The calls are words filed in the database; no cut-off is given here.

The test system of test [1] is Glycine max. Kind of test: Binding affinity to soybean p1 15-LOX at 10 ug after 1 hr by magnetic microbead affinity selection screening method.
Test [2] in a line: Inhibition of 15-LOX in soybean using linoleic acid as substrate measured for 30 to 90 secs. The arrangement: species or system Glycine max.
Test [3] relates to Glycine max. The test is described as follows: Binding affinity to soybean p1 15-LOX at 100 pmol after 1 hr by magnetic microbead affinity selection screening method.
For test [4], the target named is T1, Polyunsaturated fatty acid lipoxygenase ALOX15 (Homo sapiens, UniProt P16050).
T1 sequence (P16050 whole entry): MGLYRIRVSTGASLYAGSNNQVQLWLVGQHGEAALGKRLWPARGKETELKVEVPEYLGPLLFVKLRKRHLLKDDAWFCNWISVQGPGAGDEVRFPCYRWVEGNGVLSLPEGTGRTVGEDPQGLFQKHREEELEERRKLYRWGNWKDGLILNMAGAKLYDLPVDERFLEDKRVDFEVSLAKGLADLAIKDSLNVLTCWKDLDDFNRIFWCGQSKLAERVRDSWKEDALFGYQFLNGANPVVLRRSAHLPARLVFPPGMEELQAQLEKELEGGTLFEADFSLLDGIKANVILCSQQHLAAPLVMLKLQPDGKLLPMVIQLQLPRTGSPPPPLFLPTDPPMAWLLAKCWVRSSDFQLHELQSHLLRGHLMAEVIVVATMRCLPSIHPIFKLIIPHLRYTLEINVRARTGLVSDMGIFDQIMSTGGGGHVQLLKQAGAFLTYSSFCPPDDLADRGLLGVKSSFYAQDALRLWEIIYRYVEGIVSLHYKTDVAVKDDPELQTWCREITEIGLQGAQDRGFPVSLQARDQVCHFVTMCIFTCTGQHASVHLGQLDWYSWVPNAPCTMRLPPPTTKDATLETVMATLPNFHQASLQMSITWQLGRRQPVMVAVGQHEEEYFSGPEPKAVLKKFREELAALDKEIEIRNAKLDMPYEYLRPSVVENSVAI
The test is described as follows: Inhibition of 15-LOX (unknown origin).

Turning to `C[C@@H]1O[C@@H](Oc2c(-c3ccc(O)c(O)c3)oc3cc(O)cc(O)c3c2=O)[C@H](O)[C@H](O)[C@H]1O` [QUERCITRIN], the outcome with Glycine max [1] was Active. In test [2], this compound came in with an IC50 of 79.8 µM.

Turning to `O=c1cc(-c2ccc(O)c(O)c2)oc2cc(O)cc(O)c12` [LUTEOLIN], in the test on Glycine max [3], the result was Active. The compound further returned an IC50 in test [4] of 5 µM.

Regarding `O=c1c2ccccc2[se]n1-c1ccccc1`, the outcome in the test on Glycine max [3] was inactive.

One may read the IC50 as the concentration that gives 50% inhibition. Higher therefore signals a need for much substance.
